Assay results taken from PMC12169669, “Regio- and Stereoselective Synthesis of Nitro-fatty Acids as NRF2 Pathway Activators Working under Ambient or Hypoxic Conditions” (Journal of Medicinal Chemistry, 2025).

Key:
Hmox1 = assay: Relative gene expression of Hmox1 in BMCs (qRT-PCR); type: cell-based, mouse; conditions: 2 μM, 4 h; for Hmox1 relative expression: 4% and 1% oxygen
Source text: (§1) Primary bone marrow cells (BMCs) were isolated from 8–12-week-old male C57BL/6 mice (25–30 g, AnLab, Czech Republic). Mice were housed under standard conditions. BMCs were isolated as follows: The day before isolation, phosphate-buffered saline (PBS), ACK Lysis Buffer (A10492-01, Thermo Fisher Scientific), and Iscove’s Modified Dulbecco’s Medium (IMDM) (12440-053, Thermo Fisher Scientific) were placed in a hypoxic chamber (InvivO2 400, Baker Ruskinn, UK) with adjustable oxygen control to equilibrate for the target oxygen concentrations. On the day of the experiment, animals were euthanized using ketamine/xylazine, and bilateral femurs were extracted. BMCs were flushed with hypoxic (1% O2 unless stated otherwise) PBS supplemented with 2% fetal bovine serum (FBS; low endotoxin, FB-1101/500, Biosera, France). After hemolysis at room temperature using hypoxic ACK Lysis Buffer, nucleated BMCs were washed with hypoxic PBS + 2% FBS and counted using a TC20 automated cell counter (Bio-Rad). Cells were kept under hypoxic conditions prior to treatment. The medium for BMC culture, consisting of IMDM with 2% FBS and 1% penicillin/streptomycin (LM-A4118/100, Biosera, France), was supplemented with 10 ng/mL mouse IL-3, 10 ng/mL mouse IL-6, and 50 ng/mL mouse stem cell factor - SCF (213-13, 216-16, and 250-03, respectively; all from PeproTech). Cells were cultured at 37 °C in a humidified atmosphere containing 5% CO2 and the specified oxygen concentrations (21%, 4%, or 1%).
For the relative gene expression of nuclear factor erythroid 2-related factor 2 (NRF2, encoded by Nfe2l2), heme oxygenase-1 (Hmox1), and Glutamate-Cysteine Ligase Modifier Subunit (Gclm) (Mm00477784_m1, Mm00516005_m1, Mm00514996_m1, all from Thermo Fisher Scientific), mouse BMC (3 × 10^6 cells) were cultivated on a 6-well plate in 1.5 mL of complete media (see Isolation and culture of primary cells), and then incubated with 2 μM NO2FAs or control (medium only) for 4 h at the specified oxygen levels (21%, 4%, or 1%). Then, the adherent and nonadherent cells were washed with PBS and lysed using a NucleoSpin RNA Plus kit (740984, Machery-Nagel; Germany). The concentration and purity of isolated RNA was assessed using an Infinite M200 Pro spectrophotometer (Tecan, Austria). Total RNA (0.2 μg) was reversely transcribed into first strand cDNA using a RevertAid First Strand cDNA Synthesis kit according to the manufacturer’s protocol (K1622, Thermo Fisher Scientific). qRT-PCR reactions were performed in a LightCycler480 instrument (Roche; Switzerland) using TaqMan FastAdvanced Master Mix for qPCR (4444557, Thermo Fisher Scientific) and the following program was used: uracil-N-glycosylase activation step at 50 °C for 2 min, an initial denaturation step at 95 °C for 2 min, followed by 45 cycles (95 °C for 3 s, 60 °C for 30 s), and a final cooling step at 40 °C for 1 min. Data were normalized to ribosomal protein L32 (Rpl32, Mm02528467_g1, Thermo Fisher Scientific) and presented as 2^–Δcq.
3 Expression of NRF2 and its target genes in response to NO2FA derivatives. BMCs were cultured under 4% or 1% oxygen conditions and treated for 4 h with the tested NO 2 FAs (2 μM) or medium followed by quantification of (A) Nfe2l2, (B) Hmox1, and (C) Gclm with PCR. Results are presented as relative expression across different oxygen culture conditions. Dimethyl fumarate (DMF) was added as a control. Data are expressed as mean ± SD from 3 to 7 independent experiments (n = 3–7), analyzed with one-way ANOVA with Dunnett’s multiple comparisons test compared to the controls (*p < 0.05; **p < 0.01; ***p < 0.001).
Relative expression of (A) Hmox1 and (B) Gclm in different oxygen […]
Figure S 2. Relative expression of (A) Hmox1 and (B) Gclm in different oxygen conditions. BMCs were cultured under varying oxygen conditions (21, 4, and 1%) and treated for 4 hours with the tested 10 -NO₂OA (2 µM) or medium followed by quantification […]
with PCR. […]

HO-1 = HO-1 protein level in BMCs (Western blot); type: cell-based, mouse; conditions: 2 μM, 4 h; for HO-1 increase at 1% oxygen relative to atmospheric conditions: 1% vs 21% oxygen
Source text: as §1
Briefly, 1.5 × 10^6 BMCs were placed in 0.2 mL of complete medium in 1.5 mL microtubes and incubated with 2 μM NO2FAs or the control (medium only) for 1 (NRF2), 4 (heme oxygenase-1, HO-1), or 7 (glutamate-cysteine ligase modifier subunit, GCLM) hours at the specified oxygen levels (21%, 4%, or 1%). Cells were then spun down and washed with PBS (from this step onward, cells were processed under atmospheric conditions). Next, cells were lysed in 60 μL RIPA buffer (89901, Thermo Fisher Scientific) containing protease and phosphatase inhibitors cocktail (78442, Thermo Fisher Scientific). Cell lysates were sonicated and centrifuged at 15,000g for 3 min at 4 °C, and 15 μL of lane marker (3900, Thermo Fisher Scientific) was added to the supernatants. Samples were boiled for 3 min at 95 °C. Equal volumes of lysates (15–45 μL/well) were loaded onto 7–15% SDS-polyacrylamide gels. Proteins were then transferred onto PVDF membranes (IPVH85R, EMD Millipore Corp.) and blocked with 5% nonfat dry milk in TBST. Membranes were incubated overnight at 4 °C with the following primary antibodies: anti-β-actin (1:1000; #3700, Cell Signaling Technology), antivinculin (1:10,000; #SAV9264, Sigma-Aldrich), anti-NRF2 (1:500; A308758, Lot 38410, Antibodies.com, UK), anti-HO-1 (1:1000; #43966, Cell Signaling Technology), antihistone H3 (1:2000; #4499, Cell Signaling Technology), or anti-GCLM (1:100; sc-55586, Santa Cruz Biotechnology). This was followed by incubation with corresponding HRP-linked secondary antibodies (antimouse IgG, #7076, 1:1000–5000; or antirabbit IgG, #7074, 1:1000–2000; both from Cell Signaling Technology) for 1 h at room temperature. Protein bands were visualized using an enhanced chemiluminescent substrate (SuperSignal 34577/34095, Thermo Fisher Scientific). The optical densities of detected proteins were measured using ImageJ v1.52 (NIH).
4 Expression of NRF2-target proteins HO-1 and GCLM. NO 2 FA derivatives upregulate the expression of NRF2-target proteins in mouse BMCs. BMCs were cultured under 21% or 1% oxygen conditions and treated with 2 μM of the tested NO 2 FAs for 4 h (A, B) or 7 h (C, D). HO-1 (A, B) and GCLM (C, D) expression in whole-cell lysates was subsequently analyzed. Results are presented as the fold change relative to control cells across different oxygen culture conditions. Data are expressed as mean ± SD from 3–5 independent experiments (n = 3–5). […]

| SMILES | Hmox1 relative expression (Hmox1) | HO-1 protein level, fold change relative to control (HO-1; 1% oxygen) | HO-1 protein level, fold change relative to control (HO-1; 21% oxygen) | HO-1 increase at 1% oxygen relative to atmospheric conditions (HO-1) | Hmox1 expression at 1% oxygen compared to 21% (Hmox1; 1% vs 21% oxygen) |
| --- | --- | --- | --- | --- | --- |
| CCCCCCCCC(CCCCCCCCC(=O)O)[N+](=O)[O-] (stereo not shown) [10-NO2SA, 10-Nitro Stearic acid] | no effects | no significant effects | no significant effects | – | – |
| CCCCCCCC/C=C(\CCCCCCCC(=O)O)[N+](=O)[O-] [9-NO2OA, (9E)-9-Nitro-oleic Acid] | significant upregulation | – | significantly increased | roughly 1.8 fold | – |
| CCCCCC/C=C/C=C(\CCCCCCCC(=O)O)[N+](=O)[O-] [9-NO2cLA, (9E,11E)-9-Nitro Conjugated Linoleic Acid] | upregulation that was dependent on oxygen levels | – | – | – | – |
| CCCCC/C=C\C/C(=C\CCCCCCCC(=O)O)[N+](=O)[O-] [10-NO2LA, (9E,12Z)-10-Nitro Linoleic Acid] | upregulation that was dependent on oxygen levels or specific target genes | only increased HO-1 under hypoxic conditions | – | – | – |
| CCCCCCCC/C(=C\CCCCCCCC(=O)O)[N+](=O)[O-] [10-NO2OA, (9E)-10-Nitro-oleic Acid] | significant upregulation | – | significantly increased | ~2.2 fold | significantly upregulated |
